Molecules are shown by their SMILES.

The subject of this test is Wnt signaling. The test can be described thus: Wnt-Luc reporter assay for pathway inhibition of Wnt signaling. Type of test: cell-based, mouse (TM3 Wnt-Luc) or human (293 Wnt-Luc); not stated which. Particulars: Wnt-Luc reporter cells co-cultured with L-cell Wnt3a cells, 24 hours, luciferase signal reduced by 50%. The procedure: This example provides a method that is useful for evaluating test compounds for inhibition of Wnt signaling.
Mouse leydig cell TM3 cells (obtained from American Type Culture Collection, ATCC, Manassas, Va.) are cultured in 1:1 mixture of Ham's F12 medium and Dulbecco's modified Eagle's medium (Gibco/Invitrogen, Carlsbad, Calif.) supplemented with 2.5% FBS (Gibco/Invitrogen, Carlsbad, Calif.) and 5% horse serum (Gibco/Invitrogen, Carlsbad, Calif.), 50 unit/mL penicillin and 50 μg/mL of streptomycin (Gibco/Invitrogen, Carlsbad, Calif.) at 37° C. with 5% CO2 in air atmosphere. TM3 cells in a 10 cm dish are co-transfected with 8 μg of STF-reporter plasmid containing a luciferase gene driven by Wnt-responsive elements and 2 μg of pcDNA3.1-Neo (Gibco/Invitrogen, Carlsbad, Calif.) with 30 μL of FuGENE6 (Roche Diagnostics, Indianapolis, Ind.) following the manufacturer's protocol. Stable cell lines (TM3 Wnt-Luc) were selected with 400 μg/mL of G418 (Gibco/Invitrogen, Carlsbad, Calif.). The TM3 Wnt-Luc cells and L-cell Wnt3a cells (obtained from American Type Culture Collection, ATCC, Manassas, Va.; cultured in Dulbecco's modified Eagle's medium (Gibco/Invitrogen, Carlsbad, Calif.) supplemented with 10% FBS (Gibco/Invitrogen, Carlsbad, Calif.) and 50 unit/mL penicillin and 50 μg/mL of streptomycin (Gibco/Invitrogen, Carlsbad, Calif.) at 37° C. with 5% CO2 in air atmosphere) are trypsinized and co-cultured into a 384-well plate with DMEM medium supplemented with 2% FBS, and treated with different concentrations of a compound of the invention. After 24 hours, the firefly luciferase activities are assayed with the Bright-Glo™ Luciferase Assay System (Promega, Madison, Wis.). The IC50 is measured when the effect of the compound reduces the luminescence signal by 50%.
This example provides another method that is useful for evaluating test compounds for inhibition of Wnt signaling.
Human embryonic kidney 293 cells (obtained from American Type Culture Collection, ATCC, Manassas, Va.) are cultured in DMEM medium (Gibco/Invitrogen, Carlsbad, Calif.) supplemented with 10% FBS (Gibco/Invitrogen, Carlsbad, Calif.), 50 unit/mL penicillin and 50 μg/mL of streptomycin (Gibco/Invitrogen, Carlsbad, Calif.) at 37° C. with 5% CO2 in air atmosphere. 293 cells in a 10 cm dish are co-transfected with 8 μg of STF-reporter plasmid containing a luciferase gene driven by Wnt-responsive elements and 2 μg of pcDNA3.1-Neo (Gibco/Invitrogen, Carlsbad, Calif.) with 30 μL of FuGENE6 (Roche Diagnostics, Indianapolis, Ind.) following the manufacturer's protocol. Stable cell lines (293 Wnt-Luc) were selected with 400 μg/mL of G418 (Gibco/Invitrogen, Carlsbad, Calif.). The 293 Wnt-Luc cells and L-cell Wnt3a cells (obtained from American Type Culture Collection, ATCC, Manassas, Va.) are trypsinized and co-cultured into a 384-well plate with DMEM medium supplemented with 2% FBS, and treated with different concentrations of a compound of the invention. After 24 hours, the firefly luciferase activities are assayed with the Bright-Glo™ Luciferase Assay System (Promega, Madison, Wis.). The IC50 is measured when the effect of the compound reduces the luminescence signal by 50%.
Regarding `Cc1cc(-c2ncc(CNC(=O)c3ccc(-c4cnccn4)cn3)cc2F)ccn1` [compound 60, N-{[5-fluoro-6-(2-methylpyridin-4-yl)pyridin-3-yl]methyl}-5-(pyrazin-2-yl)pyridine-2-carboxamide], the IC50 came out at 0.26 nM. The value for `Cc1cc(-c2ncc(CNC(=O)c3ccc(-c4cnccn4)nc3)cc2F)ccn1` [compound 61, N-{[5-fluoro-6-(2-methylpyridin-4-yl)pyridin-3-yl]methyl}-6-(pyrazin-2-yl)pyridine-3-carboxamide] was 0.62 nM; that for `CC(=O)N1CCN(c2ccc(C(=O)NCc3cnc(-c4ccnc(C)c4)c(F)c3)nc2)CC1` [compound 62, 5-(4-acetylpiperazin-1-yl)-N-{[5-fluoro-6-(2-methylpyridin-4-yl)pyridin-3-yl]methyl}pyridine-2-carboxamide] was 11.8 nM; that for `Cc1cc(-c2ncc(CNC(=O)c3ccc(-c4cnccn4)cn3)cc2C)ccn1` [compound 63, N-((2′,3-dimethyl-2,4′-bipyridin-5-yl)methyl)-5-(pyrazin-2-yl)picolinamide] was 2.5 nM.

`Cc1c(F)cccc1-c1ccc(C(=O)NCc2ccc(-c3ccnc(C(F)(F)F)c3)nc2)nc1` [compound 64, 5-(3-fluoro-2-methylphenyl)-N-({6-[2-(trifluoromethyl)pyridin-4-yl]pyridin-3-yl}methyl)pyridine-2-carboxamide] came in with an IC50 of 11 nM. Under `Cc1ccc(F)cc1-c1ccc(C(=O)NCc2ccc(-c3ccnc(C(F)(F)F)c3)nc2)nc1` [compound 65, 5-(5-fluoro-2-methylphenyl)-N-({6-[2-(trifluoromethyl)pyridin-4-yl]pyridin-3-yl}methyl)pyridine-2-carboxamide] stands 5.8 nM; under `Cc1cc(CNC(=O)c2ccc(-c3cnccn3)cn2)cnc1-c1cc[nH]c(=O)c1` [compound 66, N-((5-Methyl-6-(2-oxo-1,2-dihydropyridin-4-yl)pyridin-3-yl)methyl)-5-(pyrazin-2-yl)picolinamide], 45 nM; under `Cc1ncccc1-c1ccc(C(=O)NCc2ccc(-c3ccnc(C(F)(F)F)c3)nc2)nc1` [compound 67, 5-(2-methylpyridin-3-yl)-N-({6-[2-(trifluoromethyl)pyridin-4-yl]pyridin-3-yl}methyl)pyridine-2-carboxamide], 6 nM.

`O=C(NCc1ccc(N2CCS(=O)(=O)CC2)nc1)c1ccc(-c2cnccn2)cn1` [compound 68, N-((6-(1,1-dioxidothiomorpholino)pyridin-3-yl)methyl)-5-(pyrazin-2-yl)picolinamide] gave an IC50 of 38 nM.

`O=C(NCc1ccc(N2CCS(=O)(=O)CC2)nc1)c1ccc(-c2cnccn2)nc1` [compound 69, N-((6-(1,1-dioxidothiomorpholino)pyridin-3-yl)methyl)-6-(pyrazin-2-yl)nicotinamide] registered an IC50 of 88 nM. Under `Cc1cc(C(=O)NCc2cnc(-c3ccnc(C(F)(F)F)c3)c(C)c2)ccc1-c1ncccc1C` [compound 70, 3-methyl-N-({5-methyl-6-[2-(trifluoromethyl)pyridin-4-yl]pyridin-3-yl}methyl)-4-(3-methylpyridin-2-yl)benzamide] stands 27 nM; under `O=C(NCc1cnc(-c2ccnnc2)c(F)c1)c1ccc(-c2cnccn2)cn1` [compound 71, N-{[5-fluoro-6-(pyridazin-4-yl)pyridin-3-yl]methyl}-5-(pyrazin-2-yl)pyridine-2-carboxamide], 2.5 nM.

As for `O=C(NCc1ccc(-c2ccnc(C(F)(F)F)c2)nc1)c1ccc(-c2ccc(N3CCCC3=O)nc2)cn1` [compound 72, 6′-(2-Oxopyrrolidin-1-yl)-N-((2′-(trifluoromethyl)-[2,4′-bipyridin]-5-yl)methyl)-[3,3′-bipyridine]-6-carboxamide], half-maximal inhibition (IC50) required 1.9 nM. `Cc1cccnc1-c1ccc(C(=O)NCc2ccc(-c3ccnc(C(F)(F)F)c3)nc2)nc1` [compound 73, 5-(3-methylpyridin-2-yl)-N-({6-[2-(trifluoromethyl)pyridin-4-yl]pyridin-3-yl}methyl)pyridine-2-carboxamide] gave an IC50 of 6 nM.

One may read the IC50 as the concentration that inhibits the measured activity by half. Higher therefore signals a need for much substance.

The values are drawn from patent US9181235B2, “Substituted pyridines for modulating the WNT signaling pathway” (NOVARTIS AG, priority 2010, dated 2015).
